Reference: PubChem BioAssay (NCI)
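1) Cells in 96-well plates. 2) Compound, 48 h, 5 concentrations. 3) Linear interpolation between surrounding doses. 4) Unreached endpoint = highest concentration. GI50 = concentration required for 50% inhibition of growth. The concentration for full growth arrest is given as TGI.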

Assays:
Experiment in all cases: NCI tumour cell line growth inhibition, 48 h; in the data active = GI50 below about 0.43 µM; inactive = the rest
NCI-H23 lung = test system: NCI-H23 lung
SR leukemia = test system: SR leukemia
COLO 205 colon = test system: COLO 205 colon
SW-620 colon = test system: SW-620 colon
SF-539 CNS = test system: SF-539 CNS
NCI-H522 lung = test system: NCI-H522 lung
MDA-MB-231 breast = test system: MDA-MB-231 breast
SK-OV-3 ovarian = test system: SK-OV-3 ovarian
DU-145 prostate = test system: DU-145 prostate
OVCAR-4 ovarian = test system: OVCAR-4 ovarian
HT29 colon = test system: HT29 colon
MOLT-4 leukemia = test system: MOLT-4 leukemia
RPMI-8226 leukemia = test system: RPMI-8226 leukemia
MCF7 breast = test system: MCF7 breast
SF-268 CNS = test system: SF-268 CNS
CCRF-CEM leukemia = test system: CCRF-CEM leukemia
HCT-15 colon = test system: HCT-15 colon
A549 NSCLC = test system: A549 NSCLC
MALME-3M melanoma = test system: MALME-3M melanoma
K-562 leukemia = test system: K-562 leukemia
IGROV1 ovarian = test system: IGROV1 ovarian
SK-MEL-5 melanoma = test system: SK-MEL-5 melanoma
SN12C renal = test system: SN12C renal
UACC-257 melanoma = test system: UACC-257 melanoma
HL-60(TB) leukemia = test system: HL-60(TB) leukemia
RXF 393 renal = test system: RXF 393 renal
LOX IMVI melanoma = test system: LOX IMVI melanoma
SK-MEL-2 melanoma = test system: SK-MEL-2 melanoma
UO-31 renal = test system: UO-31 renal
HS 578T breast = test system: HS 578T breast
T-47D breast = test system: T-47D breast
OVCAR-5 ovarian = test system: OVCAR-5 ovarian
TK-10 renal = test system: TK-10 renal
MDA-MB-435 = test system: MDA-MB-435
HCC-2998 colon = test system: HCC-2998 colon
BT-549 breast = test system: BT-549 breast
U251 CNS = test system: U251 CNS
UACC-62 melanoma = test system: UACC-62 melanoma
HOP-92 NSCLC = test system: HOP-92 NSCLC
SNB-75 CNS = test system: SNB-75 CNS
CAKI-1 renal = test system: CAKI-1 renal
786-0 renal = test system: 786-0 renal
ACHN renal = test system: ACHN renal
HOP-62 NSCLC = test system: HOP-62 NSCLC
PC-3 prostate = test system: PC-3 prostate
SK-MEL-28 melanoma = test system: SK-MEL-28 melanoma
NCI-H226 lung = test system: NCI-H226 lung
NCI-H460 lung = test system: NCI-H460 lung
HCT-116 colon = test system: HCT-116 colon
OVCAR-8 ovarian = test system: OVCAR-8 ovarian
OVCAR-3 ovarian = test system: OVCAR-3 ovarian
A498 renal = test system: A498 renal
SF-295 CNS = test system: SF-295 CNS
SNB-19 CNS = test system: SNB-19 CNS
KM12 colon = test system: KM12 colon
NCI/ADR-RES ovarian = test system: NCI/ADR-RES ovarian
M14 melanoma = test system: M14 melanoma

COC(=O)[C@@H]1CCCN1C(=O)[C@@H]1CCCN1C(=O)[C@@H](Cc1c[nH]c2ccccc12)NC(=S)Nc1cc(C(F)(F)F)cc(C(F)(F)F)c1
35.3 µM: TGI (UACC-257 melanoma)
5.52 µM: TGI (SK-MEL-5 melanoma)
5.5 µM: TGI (COLO 205 colon)
67.4 µM: TGI (SF-539 CNS)
20.4 µM: TGI (UACC-62 melanoma)
26.5 µM: TGI (NCI-H522 lung)
98.2 µM: TGI (A498 renal)
inactive: GI50 (NCI-H23 lung) 6.35 µM | GI50 (SR leukemia) 2390 nM | GI50 (COLO 205 colon) 2410 nM | GI50 (SW-620 colon) 4.34 µM | GI50 (SF-539 CNS) 7.72 µM | GI50 (NCI-H522 lung) 3.98 µM | GI50 (MDA-MB-231 breast) 3.01 µM | GI50 (SK-OV-3 ovarian) 47.2 µM | GI50 (DU-145 prostate) 14.6 µM | GI50 (OVCAR-4 ovarian) 4.32 µM | GI50 (HT29 colon) 3.68 µM | GI50 (MOLT-4 leukemia) 3.16 µM | GI50 (RPMI-8226 leukemia) 3.34 µM | GI50 (MCF7 breast) 2610 nM | GI50 (SF-268 CNS) 6.44 µM | GI50 (CCRF-CEM leukemia) 3.39 µM | GI50 (HCT-15 colon) 4.87 µM | GI50 (A549 NSCLC) 5.31 µM | GI50 (MALME-3M melanoma) 5.17 µM | GI50 (K-562 leukemia) 3.98 µM | GI50 (IGROV1 ovarian) 3.91 µM | GI50 (SK-MEL-5 melanoma) 2130 nM | GI50 (SN12C renal) 6.81 µM | GI50 (UACC-257 melanoma) 4.06 µM | GI50 (HL-60(TB) leukemia) 4.26 µM | GI50 (RXF 393 renal) 2140 nM | GI50 (LOX IMVI melanoma) 1890 nM | GI50 (SK-MEL-2 melanoma) 2490 nM | GI50 (UO-31 renal) 5.44 µM | GI50 (HS 578T breast) 7.81 µM | GI50 (T-47D breast) 2910 nM | GI50 (OVCAR-5 ovarian) 15 µM | GI50 (TK-10 renal) 10.9 µM | GI50 (MDA-MB-435) 2440 nM | GI50 (HCC-2998 colon) 2900 nM | GI50 (BT-549 breast) 4.75 µM | GI50 (U251 CNS) 4.31 µM | GI50 (UACC-62 melanoma) 3.68 µM | GI50 (HOP-92 NSCLC) 1460 nM | GI50 (SNB-75 CNS) 1910 nM | GI50 (CAKI-1 renal) 16.9 µM | GI50 (786-0 renal) 5.95 µM | GI50 (ACHN renal) 4.28 µM | GI50 (HOP-62 NSCLC) 8.35 µM | GI50 (PC-3 prostate) 2950 nM | GI50 (SK-MEL-28 melanoma) 1950 nM | GI50 (NCI-H226 lung) 7.74 µM | GI50 (NCI-H460 lung) 4.77 µM | GI50 (HCT-116 colon) 4.03 µM | GI50 (OVCAR-8 ovarian) 5.83 µM | GI50 (OVCAR-3 ovarian) 3.8 µM | GI50 (A498 renal) 11.1 µM | GI50 (SF-295 CNS) 6.48 µM | GI50 (SNB-19 CNS) 16.2 µM | GI50 (KM12 colon) 5.45 µM | GI50 (NCI/ADR-RES ovarian) > 100 µM | GI50 (M14 melanoma) 4.68 µM
48.7 µM: TGI (IGROV1 ovarian)
28.6 µM: TGI (BT-549 breast)
5.11 µM: TGI (SK-MEL-2 melanoma)
> 100 µM: TGI (NCI-H23 lung) | TGI (SW-620 colon) | TGI (SK-OV-3 ovarian) | TGI (DU-145 prostate) | TGI (OVCAR-4 ovarian) | TGI (MOLT-4 leukemia) | TGI (RPMI-8226 leukemia) | TGI (MCF7 breast) | TGI (SF-268 CNS) | TGI (CCRF-CEM leukemia) | TGI (HCT-15 colon) | TGI (A549 NSCLC) | TGI (K-562 leukemia) | TGI (SN12C renal) | TGI (HL-60(TB) leukemia) | TGI (UO-31 renal) | TGI (HS 578T breast) | TGI (SNB-75 CNS) | TGI (CAKI-1 renal) | TGI (ACHN renal) | TGI (HOP-62 NSCLC) | TGI (NCI-H226 lung) | TGI (NCI-H460 lung) | TGI (HCT-116 colon) | TGI (OVCAR-8 ovarian) | TGI (SF-295 CNS) | TGI (SNB-19 CNS) | TGI (KM12 colon) | TGI (NCI/ADR-RES ovarian)
24.7 µM: TGI (MALME-3M melanoma)
24.9 µM: TGI (PC-3 prostate)
23.3 µM: TGI (HT29 colon)
95.3 µM: TGI (U251 CNS)
4.38 µM: TGI (LOX IMVI melanoma)
6.44 µM: TGI (SR leukemia)
10.8 µM: TGI (MDA-MB-231 breast)
87.8 µM: TGI (TK-10 renal)
5.89 µM: TGI (RXF 393 renal)
52.2 µM: TGI (OVCAR-3 ovarian)
6.8 µM: TGI (MDA-MB-435)
9.5 µM: TGI (T-47D breast)
9.05 µM: TGI (HCC-2998 colon)
4.54 µM: TGI (SK-MEL-28 melanoma)
5.26 µM: TGI (HOP-92 NSCLC)
73 µM: TGI (OVCAR-5 ovarian)
21.1 µM: TGI (M14 melanoma)
20.1 µM: TGI (786-0 renal)
